# Reference: US9750724B2, “Use of an aromatase inhibitor for the treatment of hypogonadism and related diseases” (Mereo BioPharma 2 Limited, priority 2011, dated 2017)
# Columns and labels:
# [1] = Pharmacokinetics after oral administration to rats; format: in vivo, rat
# Text: In one embodiment, the compound may even show an apparent elimination half-life of at least about 30 days or even at least 35 days. […] The results observed were completely unexpected in view of the previous rat experiments showing a half-life of about a week [Batzl-Hartmann et al, 1994 and Bhatnagar et al, 1996]. This surprising extremely long half-life of the compound in humans gives rise to the particular dosing scheduled of the invention.
# [2] = Toxicologic studies in female and male dogs, weekly oral dosing; format: in vivo, dog
# Text: Generally, the inter-animal variability in Cmax levels was small.
# [3] = system: estrone, estrone sulfate and estradiol; assay: Single ascending dose study in women, pharmacodynamics (estrogen suppression); format: in vivo, human
# Experimental: (§1) Patients received either 0.1 mg, 1 mg, and 10 mg drug substance containing hard gelatin capsules or appropriate matching placebo capsules.
# (§2) A minimal toxic dose (MTD) was not reached. […] Table 3 presents the PK parameters based on preliminary analysis of the concentration-time profile obtained from this study.
# [4] = Single ascending dose study in women, safety and bone density (DEXA); format: in vivo; conditions: single doses 0.01 mg through 20 mg, post-menopausal women
# Experimental: as §1, §2
# [5] = Human ADME study, single oral dose of 1 mg 14C-CGP47645 in healthy postmenopausal women; format: in vivo
# Text: The study was a single dose, single group, open label ADME study of 8 healthy postmenopausal women. […] The study design consisted of a 28-day screening period, one baseline visit (Day −1), a domiciled period beginning from admission on Day −1 through discharge on Day 7, 2 outpatient visits for PK blood collection on Days 14 (±1) and 21 (±1), 2 subject specific adipose tissue collection visits, and an end-of-study 6 month safety follow-up visit.
# The primary goal of this study was to assess the partitioning of CGP47645 into abdominal adipose tissue as a measure of peripheral tissue targeting and to assess whether there may be a longer T½ metabolite, as well as to elucidate the metabolic profile, obtain information on routes of excretion and mass balance. Adipose tissue samples were collected in a sparse sampling protocol, where each subject underwent two collections of adipose tissue, with each subject biopsied at different times.
# [6] = Physicochemical properties of the crystalline compound; conditions: crystalline powder
# aromatase = target: T1, aromatase (Rattus norvegicus, UniProt P22443); conditions: once weekly administration, adult female rats; Batzl-Hartmann et al, 1994; cited from earlier work
# T1 construct: host or cells: adult female rats (whole animal, endogenous enzyme)
# T1 sequence (P22443 1-508): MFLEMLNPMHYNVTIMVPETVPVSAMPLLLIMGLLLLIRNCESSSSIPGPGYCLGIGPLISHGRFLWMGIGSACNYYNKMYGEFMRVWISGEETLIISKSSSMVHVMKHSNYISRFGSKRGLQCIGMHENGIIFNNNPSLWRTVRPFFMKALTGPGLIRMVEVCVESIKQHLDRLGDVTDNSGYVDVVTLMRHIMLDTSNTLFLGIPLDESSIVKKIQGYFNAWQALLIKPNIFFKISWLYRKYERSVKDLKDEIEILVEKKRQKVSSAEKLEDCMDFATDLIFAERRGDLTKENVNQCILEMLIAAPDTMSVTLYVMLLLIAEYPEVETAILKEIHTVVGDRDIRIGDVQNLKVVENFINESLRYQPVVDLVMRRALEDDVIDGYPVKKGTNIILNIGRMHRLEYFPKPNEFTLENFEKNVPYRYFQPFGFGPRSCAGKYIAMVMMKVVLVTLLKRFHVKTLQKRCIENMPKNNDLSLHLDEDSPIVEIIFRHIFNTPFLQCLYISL
compound,measurement,setting,value
"N#Cc1ccc(C(F)(c2ccc(C#N)cc2)n2cncn2)cc1 [CGP47645, 4,4′-[fluoro-(1-H-1,2,4-triazol-1-yl)methylene]bisbenzonitrile]",exposure (AUC) versus dose,[1],proportional to the administered dose
same,half-life,"[1]; rat, in vivo, read-out: T½ (converted)",75 h
same,Tmax,"[2]; both sexes, dog, plasma, oral, dogs, post dose",1 to 24 h
same,difference in exposure (AUC and Cmax) between male and female dogs,[2]; dogs,no consistent difference
same,drug accumulation,"[2]; dogs, weekly oral dosing for 4 or 22 weeks versus single dose",no drug accumulation
same,increase in exposure (AUC and Cmax) versus dose,"[2]; male and female dogs, single and multiple doses",generally proportional to the dose increase
same,serum testosterone levels,"[2]; male dogs after 1, 4 and 12 weeks of dosing",dramatically elevated testosterone levels at all dose levels
same,estrone suppression compared with letrozole,"[3]; postmenopausal women, doses of 0.1 mg and 0.3 mg, letrozole 2.5 mg",at least equal to letrozole
same,"inhibition of estrone, estrone sulfate and estradiol","[3]; single doses, women",dose-dependent inhibition
same,minimal toxic dose (MTD),[4],not reached
same,metabolites in plasma,[5]; LSC and LC-MS,No metabolites were detected in plasma
same,Kp,"[5]; female, human, abdominal adipose tissue, oral, 1 mg, postmenopausal women, read-out: accumulation in fat tissue in comparison to exposure in plasma",1 to 3
same,half-life,"[5]; female, human, single oral 1 mg, plasma, parent drug, read-out: terminal elimination half-life (converted)",~672 h
same,safety and tolerability,[5]; single oral 1 mg 14C-CGP47645,safe and well tolerated
same,share of renally eliminated radioactivity recovered as unchanged drug,[5]; single oral 1 mg 14C-CGP47645,16%
same,share of total radioactivity excreted after 6 days that was renally eliminated,[5]; single oral 1 mg 14C-CGP47645,Approximately 84%
same,absorption,"[5]; single oral 1 mg, healthy postmenopausal women",fast and almost complete absorption
same,duration of persistent plasma concentrations post-dose,"[5]; single oral 1 mg, terminal phase",> 4000 h
same,main metabolites identified in urine,[5]; three main metabolites,a carbinol derivative and two glucuronides
same,hygroscopicity,[6],not hygroscopic
same,effective dose achieving medical castration,aromatase,3 mg/kg
